One block for each compound: values may come before it.
Columns and labels:
RIPK1 = settings: phosphorylation mimicked by a glutamate residue; cited from earlier work
dephosphorylated MerTK = molecular target: T1, dephosphorylated MerTK (Homo sapiens, UniProt Q12866); test: Surface plasmon resonance, dephosphorylated MerTK; assay type: binding
T1 sequence (Q12866 528-999): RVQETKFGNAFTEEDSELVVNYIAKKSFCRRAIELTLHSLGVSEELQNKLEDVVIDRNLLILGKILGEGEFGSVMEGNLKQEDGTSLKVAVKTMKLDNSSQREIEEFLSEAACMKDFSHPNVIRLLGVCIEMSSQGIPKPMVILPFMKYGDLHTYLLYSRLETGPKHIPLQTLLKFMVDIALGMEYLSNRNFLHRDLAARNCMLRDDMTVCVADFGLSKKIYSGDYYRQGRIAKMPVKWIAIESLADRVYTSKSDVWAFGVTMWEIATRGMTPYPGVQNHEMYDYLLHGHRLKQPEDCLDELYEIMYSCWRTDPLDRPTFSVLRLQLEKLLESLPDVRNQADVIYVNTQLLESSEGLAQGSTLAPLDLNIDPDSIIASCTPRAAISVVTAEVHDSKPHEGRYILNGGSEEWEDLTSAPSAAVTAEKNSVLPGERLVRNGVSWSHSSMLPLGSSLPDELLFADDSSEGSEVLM

MerTK [1] = molecular target: T2, MerTK (Homo sapiens, UniProt Q12866); test: Surface plasmon resonance, MerTK; assay type: binding; settings: read-out: residence times
T2 sequence (Q12866 528-999): T1 sequence (Q12866 528-999)

MerTK [2] = settings: cited from earlier work

Structure (SMILES): CN1C(=O)C(Cc2c[nH]c3ccccc23)NC1=S (stereo not shown) [Nec-1]
- drop of affinity for RIPK1 upon phosphorylation of Ser161 (RIPK1): ~10 fold

- residence time (dephosphorylated MerTK): > 120 min
Structure (SMILES): Cc1ccc(C(=O)Nc2ccc(Oc3cc4cnn(C)c4cc3-c3cn[nH]c3)c(F)c2)c(=O)n1-c1ccc(F)cc1 [merestinib]

- residence time (MerTK [1]): < 1 min
Structure (SMILES): CCc1nc(C(N)=O)c(Nc2ccc(N3CCC(N4CCN(C)CC4)CC3)c(OC)c2)nc1NC1CCOCC1 [gilteritinib]
- off-target activity against MerTK (MerTK [2]): double-digit nanomolar

Source: publication PMC7702301 (Biochemical Journal, 2020)
